Patent US5104980A, “Chromogenic dibenzoxazepinone and dibenzothiazepinone enzyme substrates” (Miles Inc., priority 1989, dated 1992)

Tested on: β-galactosidase
Assay: cleavage of the chromogenic substrate by β-galactosidase in 50 mM phosphate buffer
Format: biochemical
Conditions: 50 mM phosphate buffer at pH 7.4 containing 5 mM MgCl2; in the presence of β-galactosidase
Procedure: When dissolved in 50 mM phosphate buffer at pH 7.4 containing 5 mM magnesium chloride (MgCl2) compound (23)+(24) (mixture) had λmax of 454 nm (^ε =22,000) and 344 nm (^ε =14,000).

In the case of “8-β-D-Galactopyranosyloxy-11-methyl-11H-dibenz[b,e] [1,4]oxazepin-1-one (23) and 2-β-D-galactopyranosyloxy-11-methyl-11H-dibenz[b,e][1,4]oxazepin-8-one (24) [(23)+(24)]”, the Km is reported as 75 µM and the “rate (Kcat) of cleavage of the substrate to (20)” value is reported as 1.32×10^4 mol. min^-1 /mol. active site.
